Measurements from patent publication US20250213560A1, “NITROGEN-CONTAINING HETEROCYCLIC COMPOUNDS HAVING PHENYL GROUP AND USES THEREOF” (BNH RESEARCH CO., LTD., priority 2022, published 2025).

Legend:
293T cells = test: Cytotoxicity test (CCK-8 cell viability) in 293T cells; assay type: cell-based, human; settings: 293T cell line
Procedure: Human undifferentiated neuroblastoma cell line SH-SY5Y and human embryonic kidney cell line (HEK)-293T were purchased from Korean Cell Line Bank (Korea) and Takara (Japan), respectively. Cells were grown in HyClone Minimal Essential Medium (MEM) and Dulbecco's Modified Eagle Medium (DMEM), respectively, supplemented with 10% (v/v) fetal bovine serum (FBS), penicillin (100 U/mL), and streptomycin ([…]). Cells were maintained in a humidified atmosphere of 95% air and 5% CO2 at 37° C. Cells were passaged 10 times at maximum. Cells were dissociated using 0.05% trypsin-EDTA solution and the cells were seeded in new culture dishes for maintenance.
To examine the cytotoxicity of compounds described herein in human cell lines, SH-SY5Y and 293T cells were used. Approximately 8,000 cells (for 293T) and 15,000 cells (for SH-SY5Y) were plated per well of a 96-well plate (SPL Life Sciences Co., Ltd., Pocheon, Korea). After incubating at 37° C. for 24 hours in a humidified atmosphere containing 5% CO2, the culture medium was replaced by a series of concentrations of test compounds diluted in the corresponding culture medium.
The time of co-incubation was 24 hours and six replicates were made for each measurement. Finally, 10 μL of CCK-8 reagent (Dojindo Laboratories, Rockville, MD) was added to each well, and after incubation at 37° C. for 3 minutes, the OD at 450 nm was measured using a multifunction microplate reader (Tecan Infinite M200 Pro). These measurements were compared to that of a control and expressed as a percentage of the control to calculate cell viability. The IC50 value was calculated using SPSS software. To do this, the absorbance of the blank wells with only growth medium is subtracted from the values or the wells with cells. The readout value of background (vehicle) was set as a 100% viability, and then the percent viability for each test solution was calculated.
The data was presented as the mean value and standard error of the mean (S.E.M.). Statistical analysis was performed with the one-way ANOVA with Tukey's post hoc test (GraphPad Prism 5 software package, version 5.02, GraphPad Software Inc. USA). Significance was accepted at p<0.05.
The cytotoxicity of the compound was evaluated by treating cells with BnH12003 and measuring cell viability.
By treating cells with various BnH12 series compounds and measuring cell viability using the experimental procedure described in Example 2, the cytotoxicity of the compounds was evaluated.

GluN2B = GluN2B protein expression by Western blot in primary cortical neuron cells; assay type: cell-based, mouse; settings: for Western blot results Mean (GluN2B expression): relative value, vehicle set to 1, primary cortical neurons treated for 24 hours; for GluN2B expression effect (in words): compared to vehicle / other compounds, Table 5
Procedure: Meanwhile, primary cortical neuron cells were isolated from cerebral cortices of 18-day-old mouse fetuses, incubated in prep media (composition (mM): NaCl 107.5, NaH2PO4 1, NaHCO333.5, glucose 11, HEPS 1%, penicillin-streptomycin 1%) containing 0.25% trypsin and DNasel for 30 minutes, dissociated into single cells, and seeded. Primary cortical neuron cells were grown in Neurobasal medium supplemented with 1% (v/v) B27, 1% penicillin (100 U/mL), streptomycin ([…]), and 1% Glutamax. Cells were maintained in a humidified atmosphere of 95% air and 5% CO2 at 37° C. Drug efficacy was evaluated after culturing primary cortical neuron cells for 14 days.
The amount of GluN2B reacted with the compound of the present disclosure was measured using Western blot. The fetal cerebral cortex was extracted from mice at 17 days of gestation, dissociated into single cells, cultured for 13 days, and treated with BnH drugs for 24 hours. The drug-treated cells were subjected to protein lysate preparation using RIPA protein lysis buffer containing protease and phosphatase inhibitors. The protein concentration was determined using a BCA protein assay kit (Pierce Biotechnology) using bovine serum albumin as a standard. Equal amounts of protein (20 μg per lane) were separated by electrophoresis on SDS-polyacrylamide gels at 90 V for 2 hours, then transferred from the SDS-polyacrylamide gel to PVDF membrane at 100 V for 1 hour. Then, primary reaction with GluN2B antibody (ab65783, Abcam) was performed at 4° C. for 1 day, washed three times at 10-minutes intervals with 1×PBT, and secondary reaction was performed with anti-mouse antibody (sc-2357, Santa Cruz) for 1 hour, followed by washing three times at 10-minutes intervals with 1×PBT. Western blotting was performed as described above to confirm GluN2B protein expression. Subsequently, each blot was re-probed using anti-β-actin antibody (sc-47778, Santa Cruz). Housekeeping protein B-actin was detected as a normalization control.
The increase and decrease of BnH12 series were confirmed by setting the vehicle to 1 (N for each group was 3 or more).
Using the experimental procedure described in Example 3, it was determined whether various BnH12 series compounds increase GluN2B expression, and the results are shown in Table 5. These in vitro experimental results are expressed as relative values to the group (vehicle) that was not treated with the compound, with the effect of the group set to 1.

| Compound | Cell viability test results (CCK) 10 uM (293T cells) [%<] | Cell viability test results (CCK) 100 uM (293T cells) [%<] | Western blot results Mean (GluN2B expression) (GluN2B) | GluN2B expression effect (in words) (GluN2B) |
| --- | --- | --- | --- | --- |
| O=C(NO)[C@@H]1CCCN1C(=O)Cc1ccc(-c2cncnc2)cc1 [BnH12017, (S)-N-hydroxy-1-(2-(4-(pyrimidin-5-yl)phenyl)acetyl)pyrrolidine-2-carboxamide] | 95 | 80 | 1.448 |  |
| C[C@H]1CC[C@@H](C(=O)O)CN1C(=O)Cc1ccc(-c2ccnnc2)cc1 [BnH12045, (3R,6S)-6-methyl-1-(2-(4-(pyridazin-4-yl)phenyl)acetyl) piperidine-3-carboxylic acid] | 99 | 99 | 1.341 |  |
| C[C@H]1CC[C@@H](C(=O)O)CN1C(=O)Cc1ccc(-c2cccnc2)cc1 [BnH12046, (3R,6S)-6-methyl-1-(2-(4-(pyridin-3-yl)phenyl)acetyl) piperidine-3-carboxylic acid] | 95 | 90 | 2.102 | excellent effects |
| C[C@H]1CC[C@@H](C(=O)O)CN1C(=O)Cc1ccc(-c2cnccn2)cc1 [BnH12047, (3R,6S)-6-methyl-1-(2-(4-(pyrazin-2-yl)phenyl)acetyl) piperidine-3-carboxylic acid] | 99 | 99 | 1.554 |  |
| C[C@H]1CC[C@@H](C(=O)O)CN1C(=O)Cc1ccc(-c2ncccn2)cc1 [BnH12048, (3R,6S)-6-methyl-1-(2-(4-(pyrimidin-2-yl)phenyl)acetyl) piperidine-3-carboxylic acid] | 95 | 80 | 1.071 |  |
| C[C@H]1CC[C@@H](C(=O)O)CN1C(=O)Cc1ccc(-c2nccn2C)cc1 [BnH12053, sodium (3R,6S)-6-methyl-1-(2-(4-(1-methyl-1H-imidazol-2-yl)phenyl)acetyl) piperidine-3-carboxylate] | 95 | 95 | 1.652 |  |
| C[C@H]1CC[C@@H](C(=O)O)CN1C(=O)Cc1ccc(-c2cnco2)cc1 [BnH12057, (3R,6S)-6-methyl-1-(2-(4-(oxazol-5-yl)phenyl)acetyl) piperidine-3-carboxylic acid] | 95 | 55 | 2.241 | excellent effects |
| C[C@H]1CC[C@@H](C(N)=O)CN1C(=O)Cc1ccc(-c2ncccn2)cc1 [BnH12058, (3R,6S)-6-methyl-1-(2-(4-(pyrimidin-2-yl)phenyl)acetyl) piperidine-3-carboxamide] | 99 | 90 | 1.54 |  |
| C[C@@H]1CC[C@H](C(=O)O)CN1C(=O)Cc1ccc(-c2cccnc2)cc1 [BnH12066, (3S,6R)-6-methyl-1-(2-(4-(pyridin-3-yl)phenyl)acetyl) piperidine-3-carboxylic acid] | 99 | 90 | 1.514 |  |
| C[C@@H]1CC[C@H](C(=O)O)CN1C(=O)Cc1ccc(-c2cnccn2)cc1 [BnH12067, (3S,6R)-6-methyl-1-(2-(4-(pyrazin-2-yl)phenyl)acetyl) piperidine-3-carboxylic acid] | 99 | 85 | 2.565 | excellent effects |
| C[C@@H]1CC[C@H](C(=O)O)CN1C(=O)Cc1ccc(-c2cncnc2)cc1 [BnH12071, (3S,6R)-6-methyl-1-(2-(4-(pyrimidin-5-yl)phenyl)acetyl) piperidine-3-carboxylic acid] | 80 | 75 | 1.799 |  |
| C[C@H]1CC[C@@H](C(=O)O)CN1C(=O)Cc1ccc(-c2cccc([N+](=O)[O-])c2)cc1 [BnH12072, (3R,6S)-6-methyl-1-(2-(3′-nitro-8 1,l′-biphenyl9-4-yl)acetyl) piperidine-3-carboxylic acid] | 90 | 80 | 1.822 |  |
| C[C@H]1CC[C@@H](C(=O)O)CN1C(=O)Cc1cccc(-c2ccccc2)c1 [BnH12078] | 90 | 75 | 1.017 |  |
| C[C@H]1CC[C@@H](C(=O)O)CN1C(=O)Cc1ccc(-c2ccc(C3CCCCC3)cc2)cc1 [BnH12085, (3R,6S)-1-(2-(4′-cyclohexyl-8 1,l′-biphenyl9-4-yl)acetyl)-6-methylpiperidine-3-carboxylic acid] | 30 | 0 | 1.557 |  |
| C[C@H]1CC[C@@H](C(=O)O)CN1C(=O)Cc1ccc(-c2ccc(N)cc2)cc1 [BnH12086, (3R,6S)-1-(2-(4′-amino-8 1,l′-biphenyl9-4-yl)acetyl)-6-methylpiperidine-3-carboxylic acid] | 80 | 70 | 1.753 |  |
| C[C@H]1CC[C@@H](C(=O)O)CN1C(=O)Cc1ccc(-c2cccc(N)c2)cc1 [BnH12088, (3R,6S)-1-(2-(3′-amino-8 1,l′-biphenyl9-4-yl)acetyl)-6-methylpiperidine-3-carboxylic acid] | 90 | 90 | 1.219 |  |
| C[C@H]1CC[C@@H](C(=O)O)CN1C(=O)Cc1ccc(-c2ccc(-c3cccnc3)cc2)cc1 [BnH12089, (3R,6S)-6-methyl-1-(2-(4'-(pyridin-3-yl)-[1,1'-biphenyl]-4-yl)acetyl)piperidine-3-carboxylic acid] | 65 | 55 | 1.409 |  |
